# Source: publication PMC8119466, “A screen of FDA-approved drugs identifies inhibitors of protein tyrosine phosphatase 4A3 (PTP4A3 or PRL-3)” (Scientific Reports, 2021)
# Where a name gives a salt, the structure may show the parent alone. Read-outs that look alike come from different tables or passages of the source. Starred links: 1 amine or outer side, 2 acyl side, 3 side chain; linkers in the order of their positions; H or OH if unused. Positions of bridges follow the written chain, without caps; N, C: chain ends. Non-standard residues stand in square brackets, D forms with d. Residues, ends and D or L forms follow the SMILES beside them. *: point of attachment. pTerphenylCO(4''-OnC5H11) = CCCCCOc1ccc(-c2ccc(-c3ccc(C(=O)*)cc3)cc2)cc1; Orn(4R-OH,5R-OH) = O=C([C@H](C[C@@H](O)[C@@H](O)N[*:3])N[*:1])[*:2]; hTyr(3S-OH,4S-OH) = N[C@H](C(=O)O)[C@H](O)[C@@H](O)c1ccc(O)cc1; Pro(3S-OH,4S-Me) = C[C@H]1CN[C@H](C(=O)O)[C@H]1O; Hyp = O=C(O)[C@@H]1C[C@@H](O)CN1
# Experiments:
# Format in all cases: biochemical
# [1] = biological target: T1, recombinant PRL-1 (Homo sapiens, UniProt Q93096); experiment: In vitro phosphatase assay (DiFMUP hydrolysis), PRL-1; also: test concentration or dose not given here
# T1 construct: 6xHis (N, cleaved yes); made in house; host or cells: E. coli One Shot BL21 Star
# T1 sequence (Q93096 1-173): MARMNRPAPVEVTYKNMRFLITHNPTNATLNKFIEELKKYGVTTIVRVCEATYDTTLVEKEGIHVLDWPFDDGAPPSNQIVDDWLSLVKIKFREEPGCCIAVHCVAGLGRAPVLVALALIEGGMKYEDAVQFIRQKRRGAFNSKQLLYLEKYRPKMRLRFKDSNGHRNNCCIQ
# [2] = biological target: T2, recombinant PRL-2 (Homo sapiens, UniProt Q12974); experiment: In vitro phosphatase assay (DiFMUP hydrolysis), PRL-2;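 also: PRL-2 activity read as DiFMUP hydrolysis after 20 min at room temperature with drug, enzyme first pre-reduced at 4 °C for 20 min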
# T2 construct: 6xHis (N, cleaved yes); made in house; host or cells: E. coli One Shot BL21 Star
# T2 sequence (Q12974 1-167): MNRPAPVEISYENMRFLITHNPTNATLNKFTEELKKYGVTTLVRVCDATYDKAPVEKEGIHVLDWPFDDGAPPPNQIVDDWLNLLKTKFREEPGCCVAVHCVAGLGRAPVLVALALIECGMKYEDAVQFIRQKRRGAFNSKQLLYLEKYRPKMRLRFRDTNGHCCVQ
# [3] = biological target: T3, recombinant PRL-3 (Homo sapiens, UniProt O75365); experiment: In vitro phosphatase assay (DiFMUP hydrolysis), PRL-3; also: test concentration or dose not given here
# T3 construct: 6xHis (N, cleaved yes); made in house; host or cells: E. coli One Shot BL21 Star
# T3 sequence (O75365 whole entry): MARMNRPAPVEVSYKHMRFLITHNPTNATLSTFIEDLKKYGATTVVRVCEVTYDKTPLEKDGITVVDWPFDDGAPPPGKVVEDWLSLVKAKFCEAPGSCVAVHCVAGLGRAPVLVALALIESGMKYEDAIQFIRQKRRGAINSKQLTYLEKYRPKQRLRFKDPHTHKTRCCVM
# [4] = FDA-approved drug screen, compared to DMSO
SMILES,"% Phosphatase Activity (compared to DMSO) PRL-1 [1, 4]","% Phosphatase Activity (compared to DMSO) PRL-2 [2, 4]","% Phosphatase Activity (compared to DMSO) PRL-3 [3, 4]",% Phosphatase Activity (compared to DMSO) PRL-1 [1],% Phosphatase Activity (compared to DMSO) PRL-2 [2],% Phosphatase Activity (compared to DMSO) PRL-3 [3]
N=C(N)NC(=O)c1nc(Cl)c(N)nc1N [Amiloride HCl],234%,300%,230%,,,
N=C(N)NC(=O)c1nc(Cl)c(N)nc1N [Amiloride hydrochloride dihydrate],254%,219%,220%,,,
CCC1(c2ccc(N)cc2)CCC(=O)NC1=O (stereo not drawn) [Aminoglutethimide],94%,107%,77%,,,
Cl.N=C(N)NN [Aminoguanidine (hydrochloride)],100%,91%,87%,,,
Cn1c(=O)c2[nH]cnc2n(C)c1=O [Aminophylline],97%,96%,62%,,,
Nc1nccs1 [Aminothiazole],108%,103%,79%,,,
CCCCc1oc2ccccc2c1C(=O)c1cc(I)c(OCCN(CC)CC)c(I)c1 [Amiodarone HCl],,,,97%,117%,102%
CCN1CCCC1CNC(=O)c1cc(S(=O)(=O)CC)c(N)cc1OC (stereo not drawn) [Amisulpride],94%,89%,74%,,,
CN(C)CCC=C1c2ccccc2CCc2ccccc21 [Amitriptyline HCl],92%,101%,89%,,,
CCOC(=O)C1=C(COCCN)NC(C)=C(C(=O)OC)C1c1ccccc1Cl.O=S(=O)(O)c1ccccc1 (stereo not drawn) [Amlodipine besylate (Norvasc)],152%,174%,168%,,,
CCOC(=O)C1=C(COCCN)NC(C)=C(C(=O)OC)C1c1ccccc1Cl (stereo not drawn) [Amlodipine],145%,157%,149%,,,
CCN(CC)Cc1cc(Nc2ccnc3cc(Cl)ccc23)ccc1O.Cl.Cl.O.O [Amodiaquin (dihydrochloride dihydrate)],84%,74%,77%,,,
CN(C)CCN1C(=O)c2cccc3cc(N)cc(c23)C1=O [Amonafide],89%,98%,72%,,,
CCC(C)(C)c1ccc(CC(C)CN2C[C@@H](C)O[C@@H](C)C2)cc1 (stereo partly drawn) [Amorolfine HCl],102%,94%,78%,,,
Clc1ccc2c(c1)C(N1CCNCC1)=Nc1ccccc1O2 [Amoxapine],109%,118%,88%,,,
CC1(C)S[C@@H]2[C@H](NC(=O)[C@H](N)c3ccc(O)cc3)C(=O)N2[C@H]1C(=O)[O-].[Na+] [Amoxicillin Sodium],,,,97%,114%,80%
C[C@@H]1[C@H](O)[C@@H](C)/C=C/C=C/C=C/C=C/C=C/C=C/C=C/[C@H](O[C@@H]2O[C@H](C)[C@@H](O)[C@H](N)[C@@H]2O)C[C@@H]2O[C@](O)(C[C@@H](O)C[C@@H](O)[C@H](O)CC[C@@H](O)C[C@@H](O)CC(=O)O[C@H]1C)C[C@H](O)[C@H]2C(=O)O [Amphotericin B],102%,92%,80%,,,
CC1(C)S[C@@H]2[C@H](NC(=O)[C@H](N)c3ccccc3)C(=O)N2[C@H]1C(=O)O [Ampicillin Trihydrate],92%,106%,72%,,,
CC1(C)S[C@@H]2[C@H](NC(=O)[C@H](N)c3ccccc3)C(=O)N2[C@H]1C(=O)O [Ampicillin sodium],120%,127%,92%,,,

SMILES,"% Phosphatase Activity (compared to DMSO) PRL-1 [1, 4]","% Phosphatase Activity (compared to DMSO) PRL-2 [2, 4]","% Phosphatase Activity (compared to DMSO) PRL-3 [3, 4]",% Phosphatase Activity (compared to DMSO) PRL-1 [1],% Phosphatase Activity (compared to DMSO) PRL-2 [2],% Phosphatase Activity (compared to DMSO) PRL-3 [3]
CCOC(=O)OC(C)OC1=C(C(=O)Nc2ccccn2)N(C)S(=O)(=O)c2ccccc21 (stereo not drawn) [Ampiroxicam],114%,114%,88%,,,
CC(C)CN(C[C@@H](O)[C@H](Cc1ccccc1)NC(=O)O[C@H]1CCOC1)S(=O)(=O)c1ccc(N)cc1 [Amprenavir],96%,81%,77%,,,
CCCc1ncc(C[n+]2ccccc2C)c(N)n1.Cl.[Cl-] [Amprolium HCl],97%,97%,94%,,,
S=C(NCc1ccc2c(c1)OCO2)N1CCN(c2ncnc3c2oc2ccccc23)CC1 [Amuvatinib (MP-470)],90%,100%,76%,,,
O=C1CN2Cc3c(ccc(Cl)c3Cl)N=C2N1 [Anagrelide HCl],93%,91%,80%,,,
CC(C)(C#N)c1cc(Cn2cncn2)cc(C(C)(C)C#N)c1 [Anastrozole],106%,122%,96%,,,
"CCCCCOc1ccc(-c2ccc(-c3ccc(C(=O)N[C@H]4C[C@@H](O)[C@@H](O)NC(=O)[C@@H]5[C@@H](O)[C@@H](C)CN5C(=O)[C@H]([C@@H](C)O)NC(=O)[C@H]([C@H](O)[C@@H](O)c5ccc(O)cc5)NC(=O)[C@@H]5C[C@@H](O)CN5C(=O)[C@H]([C@@H](C)O)NC4=O)cc3)cc2)cc1 [Anidulafungin (LY303366)] ({pTerphenylCO(4''-OnC5H11)}-[Orn(4R-OH,5R-OH)]T[Hyp][hTyr(3S-OH,4S-OH)]T[Pro(3S-OH,4S-Me)]; lactam 1-C)",569%,568%,623%,,,
COc1ccc(C(=O)N2CCCC2=O)cc1 [Aniracetam],102%,104%,75%,,,
CCCC(CCC)C(=O)O[C@H]1C[C@H]2CC[C@@H](C1)[N+]2(C)C [Anisotropine Methylbromide],111%,108%,77%,,,
c1ccc(CN(CC2=NCCN2)c2ccccc2)cc1 [Antazoline HCl],91%,104%,76%,,,
Cc1cc(=O)n(-c2ccccc2)n1C [Antipyrine],98%,107%,87%,,,
N#CC1(c2ccc(NC(=O)c3cccnc3NCc3ccncc3)cc2)CCCC1 [Apatinib],100%,106%,88%,,,
COc1ccc(-n2nc(C(N)=O)c3c2C(=O)N(c2ccc(N4CCCCC4=O)cc2)CC3)cc1 [Apixaban],102%,132%,80%,,,
CCOc1cc([C@@H](CS(C)(=O)=O)N2C(=O)c3cccc(NC(C)=O)c3C2=O)ccc1OC [Apremilast (CC-10004)],100%,78%,86%,,,
C[C@@H](O[C@H]1OCCN(Cc2n[nH]c(=O)[nH]2)[C@H]1c1ccc(F)cc1)c1cc(C(F)(F)F)cc(C(F)(F)F)c1 [Aprepitant],104%,94%,80%,,,
CN(C)CCOC(c1ccc(Cl)cc1)c1ccccn1.O=C(O)/C=C\C(=O)O (stereo not drawn) [ArbinoxaMine Maleate],100%,77%,91%,,,
COC(=O)C1=CCCN(C)C1 [Arecoline],98%,131%,84%,,,
CC1CNc2c(cccc2S(=O)(=O)N[C@@H](CCCNC(=N)N)C(=O)N2CC[C@@H](C)C[C@@H]2C(=O)O)C1 (stereo partly drawn) [Argatroban],104%,100%,80%,,,
O=C1CCc2ccc(OCCCCN3CCN(c4cccc(Cl)c4Cl)CC3)cc2N1 [Aripiprazole],100%,111%,103%,,,
